# Source: paper PMC3200184, “In vitro anti-plasmodial activity of Dicoma anomala subsp. gerrardii (Asteraceae): identification of its main active constituent, structure-activity relationship studies and gene expression profiling” (Malaria Journal, 2011)
# Like-named read-outs stand apart in the source and are kept apart here.
# What was measured:
# [1] = tested on: P. falciparum 3D7; test: Morphological analysis of treated ring-stage parasites (Giemsa smears); format: cell-based, Plasmodium falciparum; settings: 3D7, treated at early ring stage with 12.5 μM, followed over 48 h
# Experimental: (§1) A morphological comparison between compound 1 treated versus untreated parasites was performed to assess the effect of treatment and to establish sampling times, by examining the stage-specific progression of parasites across the intra-erythrocytic development cycle. The solvent (DMSO) or compound 1 was added in the window shortly after red blood cell (RBC) invasion and parasite development was monitored 6 hourly over a 48 h period using conventional Giemsa-stained smears. Fresh cultures were scaled up to 50 ml (5% hematocrit, 10% parasitemia), synchronized twice and treated with compound 1 in the window around invasion. Fifteen milliliters of culture was harvested at each of the stages used for transcriptional analyses (2, 6 and 12 hpt). Similar volumes were harvested from untreated P. falciparum 3D7 control cultures at the same time points. Parallel drug treatments were conducted, serving as biological replicates. RNA was extracted from the frozen erythrocyte pellets as described.
# A morphological analysis was performed with dehydrobrachylaenolide to ascertain the point during intra-erythrocytic development at which P. falciparum 3D7 growth was affected. […] Based on these morphological observations and the apparent rapid effect of dehydrobrachylaenolide on P. falciparum development, sampling times for transcriptional analysis were subsequently determined as 2, 6 and 12 hpt. […]
# [2] = tested on: induction of intracellular adhesion molecule-1 (ICAM-1); set-up: method as in PMID 12762788; settings: cited from earlier work
# [3] = tested on: Chinese hamster ovary (CHO) cell line; test: MTT in vitro cytotoxicity assay; format: cell-based; settings: for IC50: Cricetulus griseus, read-out: CHO IC50 (μM) n = 2; for Mammalian toxicity, CHO (in words): SAR discussion
# Experimental: Compounds were tested for in vitro cytotoxicity against a Chinese hamster ovary (CHO) cell line using the MTT [3-(4,5-dimethylthiazol-2-yl)-2,5-diphenyltetrazolium bromide] assay. The CHO cells were cultured in DMEM: Hams F-12 medium (1:1) supplemented with 10% heat-inactivated foetal calf serum (FCS) and gentamycin ([…]) (Highveld Biological, RSA). Samples were dissolved in 10% MeOH. Stock solutions (2 mg/mL) were prepared and were stored at -20°C until use. The samples were added to CHO cells as five ten-fold serial dilutions ranging from 100 - 0.01 μg/mL. A serial dilution of emetine (100 - 0.001 μg/mL) was used as a positive control. Cells were seeded in 96-well plates at a concentration of 10^5/mL (100 μL per well) and incubated at 37°C for 24 h in a humidified 5% CO2-air atmosphere. The medium was subsequently aspirated from the wells and replaced with 200 μL of the test compound dilutions. The microplates were incubated at 37°C for 48 h, after which 25 μL of sterile MTT (5 mg/mL in PBS) was added to each well and incubation was continued for 4 h at 37°C. Formazan crystals formed by viable cells were dissolved in DMSO and quantitated by measuring absorbance at 540 nm in a microtitre plate reader (Cambridge Technologies). Cell viabilities were calculated relative to reference wells containing no test compounds (positive cell controls) and no cells (background controls), plotted against log[test sample] and IC50 values derived by non-linear regression analysis using GraphPad Prism v.4.0 software.
# [4] = tested on: NCI's 60-cell line panel; set-up: method as in earlier work; settings: selectivity trend towards the leukaemia sub-panel; cited from earlier work
# [5] = tested on: P. falciparum chloroquine-resistant K1 strain; test: microbe, parasite or virus in culture; format: cell-based; settings: Plasmodium falciparum
# Experimental: (§2) Asexual P. falciparum chloroquine-sensitive 3D7 and D10 cultures, as well as chloroquine-resistant K1 strain cultures, were maintained and synchronized according to established methods in an atmosphere consisting of 5% oxygen, 5% carbon dioxide and 90% nitrogen. The parasites were maintained at a 5% haematocrit in RPMI 1640 medium supplemented with 25 mM HEPES, 22 mM glucose, 0.0088% hypoxanthine, 40 ug/mL gentamycin (all Sigma) and 0.5% Albumax (Invitrogen).
# (§3) The anti-plasmodial activities of the extracts and pure compounds were determined against the chloroquine-sensitive D10 and the chloroquine-resistant K1 strains via the parasite lactate dehydrogenase (pLDH) assay. All test substances were stored at -20°C prior to testing. […] Chloroquine diphosphate (Sigma) was used as a reference drug in all experiments. The test substances were evaluated as ten serial two-fold dilutions (0.2 - 100 μg/mL final concentration) in medium (two replicates per concentration point) in duplicate wells. […] Test solutions were mixed with suspensions of infected human red blood cells to achieve a final haematocrit of 1% and parasitaemia of 2% and incubated for 48 h in microtitre plates (250 uL final volume). Incubation conditions were as described above for the routine maintenance of the P. falciparum cultures. The IC50 values, serving as a measure for anti-plasmodial activities, were calculated by non-linear regression dose-response analysis using GraphPad Prism v.4.0 software.
# [6] = tested on: P. falciparum 3D7; test: Dose-response curves on P. falciparum 3D7 (IC99 for treatment); format: cell-based, Plasmodium falciparum; settings: P. falciparum 3D7, determined from dose-response curves
# Experimental: as §2
# as §1, with “RNA was extracted from the frozen erythrocyte pellets as described.” left out
# [7] = tested on: P. falciparum chloroquine-sensitive D10 strain; test: pLDH in vitro anti-malarial assay, D10 strain; format: cell-based, Plasmodium falciparum; settings: for IC50: Plasmodium falciparum; for Anti-malarial activity (in words): D10 strain, SAR discussion
# Experimental: as §2, §3
# [8] = K1, 48 h, read-out: K1 IC50 (μM) n = 4
# [9] = K1, read-out: K1 strain IC50 (μM) n = 2
# [10] = D10, 48 h, read-out: D10 IC50 (μM) n = 8
# [11] = D10, read-out: D10 strain IC50 (μM) n = 2
# [12] = read-out: D10 strain IC50 (μM) n = 2, Table 2, D10, pLDH assay, parent compound n = 8
compound,measurement,setting,value
"C=C1C(=O)C=C[C@]2(C)CC[C@H]3C(=C)C(=O)O[C@H]3[C@@H]12 [Compound 1, 3-oxoeudesma-1,4(15),11(13)-triene-12,6α-lide]",Morphological effect on intra-erythrocytic development,[1],Treated parasites remained arrested in the ring phase
same,Activity toward ICAM-1 induction (in words),[2],inhibitory activity
same,IC50,"[3]; CHO, 48 h",17.2 µM
same,IC50,[3]; CHO,17.2 µM
same,Anti-cancer activity (in words),[4],significant anti-cancer activity
same,IC50,[5]; [8],4.09 ± 0.579 µM
same,IC50,"[5]; K1, read-out: IC50 against K1 strain",1 µg/mL
same,IC50,[5]; [9],4.09 µM
same,IC99 (treatment concentration),[6],12.5 µM
same,IC50,[7]; [10],1.86 ± 0.254 µM
same,IC50,[7]; [11],1.86 µM
same,IC50,"[7]; D10, read-out: IC50 against D10 strain",0.455 µg/mL
"CCN(CC)CCCC(C)Nc1ccnc2cc(Cl)ccc12 (centres unmarked) [Chloroquine, Chloroquine diphosphate, reference compound]",IC50,"[3]; CHO, 48 h",35.8 µM
same,IC50,[5]; [8],0.2 µM
same,IC50,[7]; [10],0.038 µM
"C=C1C(=O)C[C@H]2C1CCC1(C)CCC(=O)C(C)C21 (stereo partly drawn) [Compound 5, (9bS)-5a,9-Dimethyl-3-methyleneoctahydro-1H-cyclopenta[a]naphthalene-2,8(3H,9bH)-dione]","Mammalian toxicity, CHO (in words)",[3]; CHO cells,substantially reduced
same,IC50,"[3]; Table 2, CHO cells, MTT",124 µM
same,Anti-malarial activity (in words),[7],moderate anti-malarial activity
same,IC50,[7]; [12],22.1 µM
"C=C1C(=O)O[C@@H]2C3=C(C)C(=O)C=C[C@]3(C)CC[C@@H]12 [Compound 2, (3aS,5aS,9bS)-5a,9-dimethyl-3-methylene-3a,4,5,5a-tetrahydronaphtho[1,2-b]furan-2,8(3H,9bH)-dione]",IC50,[3]; CHO,7.01 µM
same,IC50,[5]; [9],9.05 µM
same,Anti-malarial activity (in words),[7],six-fold less active
same,IC50,[7]; [11],11.5 µM
"CC1=C2[C@H]3OC(=O)[C@@H](C)[C@@H]3CC[C@@]2(C)C=CC1=O [Compound 3, santonin]","Mammalian toxicity, CHO (in words)",[3]; CHO cells,devoid of any significant anti-malarial activity or mammalian toxicity
same,IC50,[3]; CHO,> 400 µM
same,Anti-malarial activity (in words),[7],devoid of any significant anti-malarial activity
same,IC50,[7]; [11],> 40 µM
"C=C1C(=O)O[C@@H]2[C@H]3[C@@H](C)C(=O)C=C[C@]3(C)CC[C@@H]12 [Compound 6, (3aS,5aS,9R,9aS,9bS)-5a,9-dimethyl-3-methylene-3a,4,5,5a,9,9a-hexahydronaphtho[1,2-b]furan-2,8(3H,9bH)-dione]","Mammalian toxicity, CHO (in words)",[3]; CHO cells,increased mammalian cell toxicity
same,IC50,[3]; CHO,41.9 µM
same,Anti-malarial activity (in words),[7],no significant improvement in anti-malarial activity
same,IC50,[7]; [11],16.9 µM
"C[C@@H]1C(=O)O[C@H]2[C@H]1CC[C@@]1(C)CCC(=O)[C@H](C)[C@H]21 [Compound 4, (3S,3aS,5aS,9R,9aS,9bS)-3,5a,9-trimethyl-octahydronaphtho[1,2-b]furan-2,8(3H,9bH)-dione]","Mammalian toxicity, CHO (in words)",[3]; CHO cells,lacking both activity and toxicity
same,IC50,"[3]; Table 2, CHO cells, MTT",> 400 µM
same,Anti-malarial activity (in words),[7],lacking both activity and toxicity
same,IC50,[7]; [12],> 40 µM
